This note sets out measurements from patent publication US9199975B2, “Biaryl imidazole derivatives for regulating CYP17” (Asana Biosciences, LLC, priority 2011, dated 2015).

In the test the target is T1, human CYP17 (Homo sapiens, UniProt P05093).
T1 sequence (P05093 1-508): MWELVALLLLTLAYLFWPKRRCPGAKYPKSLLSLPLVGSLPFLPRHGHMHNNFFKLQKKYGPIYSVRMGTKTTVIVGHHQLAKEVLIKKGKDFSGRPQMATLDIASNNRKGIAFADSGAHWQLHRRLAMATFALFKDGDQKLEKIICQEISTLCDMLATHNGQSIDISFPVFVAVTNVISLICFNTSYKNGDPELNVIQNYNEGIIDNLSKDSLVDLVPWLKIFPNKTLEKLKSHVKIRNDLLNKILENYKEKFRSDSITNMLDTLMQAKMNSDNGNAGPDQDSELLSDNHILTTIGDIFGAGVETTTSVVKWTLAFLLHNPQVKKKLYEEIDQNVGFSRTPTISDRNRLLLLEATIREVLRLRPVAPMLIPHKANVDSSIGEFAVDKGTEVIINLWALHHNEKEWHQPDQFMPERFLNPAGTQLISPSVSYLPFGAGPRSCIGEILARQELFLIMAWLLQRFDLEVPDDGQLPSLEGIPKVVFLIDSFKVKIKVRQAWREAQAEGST
Briefly: Cell-based human CYP17 inhibition assay, H295R adrenocortical carcinoma cells. On the set-up: H295R Adrenocortical carcinoma cells [NCI-H295A, ATCC Number CRL-2128, American Type Culture Collection; host or cells: H295R adrenocortical carcinoma cells. To be noted: 16 hours at 37° C., read-out: CYP17 (human H295R adrenal cells). The procedure: Cell-Based Human CYP17 Inhibition Assay
A. Materials • 1. H295R Adrenocortical Carcinoma Cells and Growth Media: The media for the H295R Adrenocortical carcinoma cells [NCI-H295A, ATCC Number CRL-2128, American Type Culture Collection, Manassas, Va., US] (500 mL) was a DMEM:F12 Mix 1:1 with 5% […] BD Nu Serum; 1% (5 mL) ITS+Premix [BD Biosciences] and 1% Penstrep. • 2. LNCap-CYP17 Cells and Growth Media: Full length hCYP17a1 gene (NCBI Reference Sequence: NM_000102.3) was cloned in pCDNA3.1(+) vector between HindIII and XhoI site. The pCDNA3.1(+) vector contains the Neomycin resistance gene and was used for selection of stable cell line. The hCYP17a1 containing pCDNA3.1(+) was transfected into LNCap cells to create the LNCap-CYP17 cell line. The media for the LNCaP-CYP17 cells was RPMI 1640, 10% FBS, 1% PenStrep, Geneticin 400 μg/mL.
The H295R cells or LNCaP-hCYP17 cells were subcultured and 30,000 cells per well were seeded in a poly-d lysine plate and incubated overnight at 37° C. The next day the media was removed and 200 µL of fresh media with ^3H3-17α-hydroxy-pregnenolone (1:1000) was added. 50 μL of serially diluted compounds from a 5× plate (5 times the final desired concentration) was added. The working concentration range for active, new compounds started from a high concentration of […] with 3-fold serial dilutions generating up to 10 concentrations. The serial dilution in the 100× plate (in DMSO) and the stamping of a 5× plate (in media) from the 100× plate were carried out using a TECAN liquid handling device.
The plates were incubated overnight (16 hours) at 37° C. After 16 hours, the media was removed (approximately 220 μL) and an equal amount of chloroform was added, mixed and incubated for 30 minutes at 4 degrees. The plate was centrifuged at 4000 rpm for 15 minutes at 4° C., following which the top aqueous layer was carefully removed and added into a new deep well plate. An equal volume of activated 5% charcoal was added, mixed and incubated for 30 minutes at 4° C. The plate was then centrifuged at 4000 rpm for 15 minutes at 4° C. and the top layer carefully separated, avoiding any charcoal contamination, and placed in a white, clear bottom plate (plate cat #3610, Corning Life Sciences). An equal volume of Microscint™ 40 was added and mixed well. Following the incubation for 30 minutes, readings for the radiotracer were taken using a Microbeta® trilux.

Regarding `COc1ccc(-c2ccc(C(CC(C)C)n3ccnc3)s2)cc1` (stereo not shown) [Example 39, 1-{1-[5-(4-Methoxy-phenyl)-thiophen-2-yl]-3-methyl-butyl}-1H-imidazole], the IC50 is < 50 nM.
For `CC(c1ccc(-c2ccccc2F)cn1)n1ccnc1` (stereo not shown) [Example 40, 5-(2-Fluoro-phenyl)-2-(1-imidazol-1-yl-ethyl)-pyridine] the value was 50 to 200 nM; for `CCC(c1ccc(-c2ccc(CO)cc2)cn1)n1ccnc1` (stereo not shown) [Example 41, {4-[6-(1-Imidazol-1-yl-propyl)-pyridin-3-yl]-phenyl}-methanol], 50 to 200 nM; for `COc1ccc(-c2cccc(C(C)n3ccnc3)n2)cc1` (stereo not shown) [Example 42, 2-(1-Imidazol-1-yl-ethyl)-6-(4-methoxy-phenyl)-pyridine], 50 to 200 nM.
The same measure for `CCC(c1ccc(-c2ccc(NC(C)=O)cc2)cn1)n1ccnc1` (stereo not shown) [Example 43, N-{4-[6-(1-Imidazol-1-yl-propyl)-pyridin-3-yl]-phenyl}-acetamide]: 50 to 200 nM; for `CCC(c1cnc(-c2cn[nH]c2)s1)n1ccnc1` (stereo not shown) [Example 44, 5-(1-Imidazol-1-yl-propyl)-2-(1H-pyrazol-4-yl)-thiazole]: 50 to 200 nM.
`CCC(c1ccc(-c2cccc(F)c2)cn1)n1ccnc1` (stereo not shown) [Example 45, 5-(3-Fluoro-phenyl)-2-(1-imidazol-1-yl-propyl)-pyridine]: the IC50 was < 50 nM.
For `CCc1cc(F)ccc1-c1ncc(C(CC)n2ccnc2)s1` (stereo not shown) [Example 46, 2-(2-Ethyl-4-fluoro-phenyl)-5-(1-imidazol-1-yl-propyl)-thiazole] the value was < 50 nM; for `CCC(c1ccc(-c2ccc(OC)cc2)cn1)n1ccnc1` (stereo not shown) [Example 47, 2-(1-Imidazol-1-yl-propyl)-5-(4-methoxy-phenyl)-pyridine], 50 to 200 nM; for `CCC(c1ccc(-c2ccccc2F)cn1)n1ccnc1` (stereo not shown) [Example 48, 5-(2-Fluoro-phenyl)-2-(1-imidazol-1-yl-propyl)-pyridine], < 50 nM.
On to `CC(c1ccc(-c2ccc(O)cc2)s1)n1ccnc1` (stereo not shown) [Example 49, 4-[5-(1-Imidazol-1-yl-ethyl)-thiophen-2-yl]-phenol], for which the IC50 was < 50 nM.
For `CCC(c1ccc(-c2ccc(O)cc2)cn1)n1ccnc1` (stereo not shown) [Example 50, 4-[6-(1-Imidazol-1-yl-propyl)-pyridin-3-yl]-phenol], the IC50 is < 50 nM.
The same measure for `CCC(c1cnc(-c2ccc(OC)nc2)s1)n1ccnc1` (stereo not shown) [Example 51, 5-[5-(1-Imidazol-1-yl-propyl)-thiazol-2-yl]-2-methoxy-pyridine]: 50 to 200 nM; for `CC(C)(c1ccc(-c2ccc(O)cc2)cn1)n1ccnc1` [Example 52, 4-[6-(1-Imidazol-1-yl-1-methyl-ethyl)-pyridin-3-yl]-phenol]: 50 to 200 nM; for `CCC(c1ccc(-c2cccc(C#N)c2)cn1)n1ccnc1` (stereo not shown) [Example 53, 3-[6-(1-Imidazol-1-yl-propyl)-pyridin-3-yl]-benzonitrile]: 50 to 200 nM.
The same measure for `CC(c1ccc(-c2ccc(F)cc2)nc1)n1ccnc1` (stereo not shown) [Example 54, 2-(4-Fluoro-phenyl)-5-(1-imidazol-1-yl-ethyl)-pyridine]: 201 to 10000 nM; for `CCOC(=O)c1ccc(-c2ncc(C(C)n3ccnc3)s2)cc1` (stereo not shown) [Example 55, 4-[5-(1-Imidazol-1-yl-ethyl)-thiazol-2-yl]-benzoic acid ethyl ester]: 50 to 200 nM; for `CCC(c1ccc(-c2ccccc2OC)cn1)n1ccnc1` (stereo not shown) [Example 56, 2-(1-Imidazol-1-yl-propyl)-5-(2-methoxy-phenyl)-pyridine]: 50 to 200 nM.
In the case of `CC(c1ccc(-c2cccc(F)c2)cn1)n1ccnc1` (stereo not shown) [Example 57, 5-(3-Fluoro-phenyl)-2-(1-imidazol-1-yl-ethyl)-pyridine], the IC50 was 50 to 200 nM.
Consider `COc1ccc(-c2ncc(C(C)n3ccnc3)s2)cn1` (stereo not shown) [Example 58, 5-[5-(1-Imidazol-1-yl-ethyl)-thiazol-2-yl]-2-methoxy-pyridine], for which the IC50 was 50 to 200 nM.
For `CCC(c1cnc(-c2ccc(=O)[nH]c2)s1)n1ccnc1` (stereo not shown) [Example 59, 5-[5-(1-Imidazol-1-yl-propyl)-thiazol-2-yl]-1H-pyridin-2-one] the value was 201 to 10000 nM; for `CCC(c1cnc(-c2ccc(O)cc2)s1)n1ccnc1` (stereo not shown) [Example 60, 4-[5-(1-Imidazol-1-yl-propyl)-thiazol-2-yl]-phenol], 50 to 200 nM.
For `COc1ccc(-c2ccc(C(C)(C)n3ccnc3)nc2)cc1` [Example 61, 2-(1-Imidazol-1-yl-1-methyl-ethyl)-5-(4-methoxy-phenyl)-pyridine] the value was 50 to 200 nM; for `COc1ccc(-c2ccc(C(CC(C)C)n3ccnc3)nc2)cc1` (stereo not shown) [Example 62, 2-(1-Imidazol-1-yl-3-methyl-butyl)-5-(4-methoxy-phenyl)-pyridine], 50 to 200 nM.
Regarding `CC(c1cnc(-c2ccc(=O)[nH]c2)s1)n1ccnc1` (stereo not shown) [Example 63, 5-[5-(1-Imidazol-1-yl-ethyl)-thiazol-2-yl]-1H-pyridin-2-one], the IC50 is 201 to 10000 nM.
For `CC(=O)Nc1ccc(-c2ccc(C(C)n3ccnc3)nc2)cc1` (stereo not shown) [Example 64, N-{4-[6-(1-Imidazol-1-yl-ethyl)-pyridin-3-yl]-phenyl}-acetamide] the value was 201 to 10000 nM; for `CC(c1cnc(-c2ccc(C(=O)O)cc2)s1)n1ccnc1` (stereo not shown) [Example 65, 4-[5-(1-Imidazol-1-yl-ethyl)-thiazol-2-yl]-benzoic acid], 201 to 10000 nM.
For `COc1ccc(-c2cccnc2C(C)n2ccnc2)cc1` (stereo not shown) [Example 66, 2-(1-(1H-imidazol-1-yl)ethyl)-3-(4-methoxyphenyl)-pyridine] the value was < 50 nM.
